Tests used:
Type in all cases: cell-based
[1] = tested on: C. granulosum ATCC ® 25564 ™; assay: MIC, broth microdilution, C. granulosum; conditions: ≥85% inhibition of OD
Excerpt: (§1) Our skin microbiome houses billions of microbes, many of which are commensal and beneficial, however in some instances can trigger harmful skin inflammation. The potential for compounds to promote a healthy skin microbiome by targeting the “bad” bugs and not harming the “good” bugs is an emerging field of study in dermatology. The purpose of this study was to evaluate the antibacterial activity of the Chia seed extract composition of Example 14 compared to control Doxycycline applied in vitro to planktonic bacteria categorized as “good” (M. luteus ATCC® 4698™, S. hominis ATCC® 27847™, S. warneri ATCC® 27836™, S. epidermidis ATCC® 12228™, S. capitis ATCC®27841™, S. simulans ATCC® 27850™) and another six which are categorized as “bad” (S. aureus ATCC™ 29213™, S. aureus MRSA ATCC® 33592™, S. pyogenes ATTC® 19615™, C. acnes ATCC™ 6919™, C. xerosis ATCC® 373™, C. granulosum ATCC® 25564™).
(§2) Test agents and control were stored at recommended storage temperature until use. Minimum Inhibitory Concentrations (MIC) were determined in vitro using the broth microdilution method. […] Antimicrobial activity was defined as the lowest concentration of each test material that inhibited ≥85% of the optical density (OD) measured in broth media. […]

[2] = tested on: S. pyogenes ATCC ® 19615 ™; assay: MIC, broth microdilution, S. pyogenes; conditions: ≥85% inhibition of OD
Excerpt: as §1, §2

[3] = tested on: “good” skin bacteria strains; assay: MIC, broth microdilution, summary over “good” strains; conditions: range over the six “good” strains
Excerpt: as §1, §2

[4] = tested on: S. hominis ATCC ® 27847 ™; assay: MIC, broth microdilution, S. hominis; conditions: ≥85% inhibition of OD
Excerpt: as §1, §2

[5] = tested on: S. simulans ATCC ® 27850 ™; assay: MIC, broth microdilution, S. simulans; conditions: ≥85% inhibition of OD
Excerpt: as §1, §2

[6] = tested on: M. luteus ATCC ® 4698 ™; assay: MIC, broth microdilution, M. luteus; conditions: ≥85% inhibition of OD
Excerpt: as §1, §2

[7] = tested on: S. aureus MRSA ATCC ® 33591 ™; assay: MIC, broth microdilution, S. aureus MRSA; conditions: ≥85% inhibition of OD
[8] = tested on: “bad” strains; assay: MIC, broth microdilution, summary over “bad” strains; conditions: range over the six “bad” strains
Excerpt: as §1, §2

[9] = tested on: S. epidermidis ATCC ® 12228 ™; assay: MIC, broth microdilution, S. epidermidis; conditions: ≥85% inhibition of OD
Excerpt: as §1, §2

[10] = tested on: S. capitis ATCC ® 27841 ™; assay: MIC, broth microdilution, S. capitis; conditions: ≥85% inhibition of OD
Excerpt: as §1, §2

[11] = tested on: C. acnes ATCC ® 6919 ™; assay: MIC, broth microdilution, C. acnes; conditions: ≥85% inhibition of OD
Excerpt: as §1, §2

[12] = tested on: C. xerosis ATCC ® 373 ™; assay: MIC, broth microdilution, C. xerosis; conditions: ≥85% inhibition of OD
Excerpt: as §1, §2

[13] = tested on: S. warneri ATCC ® 27836 ™; assay: MIC, broth microdilution, S. warneri; conditions: ≥85% inhibition of OD
Excerpt: as §1, §2

[14] = tested on: S. aureus ATCC ® 29213 ™; assay: MIC, broth microdilution, S. aureus; conditions: ≥85% inhibition of OD
Excerpt: as §1, §2

Doxycycline hyclate
MIC [1]: (0.00001) % w/v | MIC ([1]; mean ± StDev of 3 experiments): 0.13 ± 0.06 µg/mL | MIC [2]: (0.00001) % w/v | MIC ([2]; mean ± StDev of 3 experiments): 0.11 ± 0.07 µg/mL | MIC for “good” strains [3]: 0.1 to 10.4 µg/mL | MIC [4]: (0.0010) % w/v | MIC ([4]; mean ± StDev of 3 experiments): 10.42 ± 3.61 µg/mL | MIC [5]: (0.00013) % w/v | MIC ([5]; mean ± StDev of 3 experiments): 1.04 ± 0.45 µg/mL | MIC [6]: (0.00001) % w/v | MIC ([6]; mean ± StDev of 3 experiments): 0.10 ± 0.00 µg/mL | MIC [7]: (0.0020) % w/v | MIC ([7]; mean ± StDev of 3 experiments): 20.83 ± 7.22 µg/mL | MIC for “bad” strains [8]: 0.1 to 20.8 µg/mL | MIC [9]: (0.00013) % w/v | MIC ([9]; mean ± StDev of 3 experiments): 1.30 ± 0.45 µg/mL | MIC [10]: (0.00007) % w/v | MIC ([10]; mean ± StDev of 3 experiments): 0.65 ± 0.23 µg/mL | MIC [11]: (0.00003) % w/v | MIC ([11]; mean ± StDev of 3 experiments): 0.26 ± 0.11 µg/mL | MIC [12]: (0.00003) % w/v | MIC ([12]; mean ± StDev of 3 experiments): 0.33 ± 0.11 µg/mL | MIC [13]: (0.00003) % w/v | MIC ([13]; mean ± StDev of 3 experiments): 0.31 ± 0.41 µg/mL | MIC [14]: (0.00002) % w/v | MIC ([14]; mean ± StDev of 3 experiments): 0.20 ± 0.00 µg/mL

From US12599642B2, “Compositions derived from Salvia hispanica seeds” (Signum Biosciences, priority 2020, dated 2026)
